In US5262417A, “Antibacterial quinolone compounds” (The Upjohn Company, priority 1991, dated 1993):
Converted amounts (≈) assume the structure as drawn. Where two headings read alike, the source gives them in different places.

Assays:
Assay in all cases: Minimum inhibitory concentration (MIC) by agar dilution
Type in all cases: cell-based
[1] = test system: Enterobacter cloacae
Description: (§1) Briefly, MIC values are determined in unsupplemented Mueller Hinton Agar (MHA). The compounds tested are diluted serially into molten MHA at 47° C. The agar is poured into petri dishes and allowed to harden. The various bacteria used for testing are grown overnight on MHA at 35° C. and transferred to Trypticase soy broth (TSB) until a turbidity of 0.5 McFarland standard is obtained. The bacteria are diluted one to 20 in TSB and inoculated on the plates (1 μl using a Steers replicator).
as §1, with “Compounds of this invention can also be tested for in vitro antimicrobial activity using standard testing procedures such as the determination of minimum inhibitory concentration (MIC) by agar dilution as described in "Methods for Dilution Antimicrobial Susceptibility Tests for Bacteria That Grow Aerobically" (MFT) published Jan. […] Briefly,” for “Briefly,”, “(1μl” for “(1 μl”

[2] = test system: Staphylococcus epidermidis; conditions: 20 h
Description: as §1, with “The antibacterial activity of the compounds of Formula IC was determined by using standard testing procedures such as the determination of minimum inhibitory concentration (MIC) by agar dilution as described in "Methods for Dilution Antimicrobial Susceptibility Tests for Bacteria That Grow Aerobically" (MFT) published January 1983 by the National Committee for Clinical Laboratory Standards, 771 East Lancaster Avenue, Villanova, Pa. 19084, USA. Briefly,” for “Briefly,”
(§2) Compounds of this invention can also be tested for in vitro antimicrobial activity using standard testing procedures such as the determination of minimum inhibitory concentration (MIC) by agar dilution as described in "Methods for Dilution Antimicrobial Susceptibility Tests for Bacteria That Grow Aerobically" (MFT) published Jan. 1983 by the National Committee for Clinical Laboratory Standards, 771 East Lancaster Avenue, Villanova, Penna. 19084, USA. Briefly, MIC values are determined in unsupplemented Mueller Hinton Agar (MHA). The compounds tested are diluted serially into molten MHA at 47° C. The agar is poured into petri dishes and allowed to harden. The various bacteria used for testing are grown overnight on MHA at 35° C. and transferred to Trypticase soy broth (TSB) until a turbidity of 0.5 McFarland standard is obtained. The bacteria are diluted one to 20 in TSB and inoculated on the plates (1μl using a Steers replicator). […] The MIC test results of selected of Formula B compounds of this invention are found in Tables B2-B9.

[3] = test system: Proteus penneri; conditions: Proteus penneri
Description: (§3) The antibacterial activity of the compounds of Formula IC was determined by using standard testing procedures such as the determination of minimum inhibitory concentration (MIC) by agar dilution as described in "Methods for Dilution Antimicrobial Susceptibility Tests for Bacteria That Grow Aerobically" (MFT) published January 1983 by the National Committee for Clinical Laboratory Standards, 771 East Lancaster Avenue, Villanova, Pa. 19084, USA. Briefly, MIC values are determined in unsupplemented Mueller Hinton Agar (MHA). The compounds tested are diluted serially into molten MHA at 47° C. The agar is poured into petri dishes and allowed to harden. The various bacteria used for testing are grown overnight on MHA at 35° C. and transferred to Trypticase soy broth (TSB) until a turbidity of 0.5 McFarland standard is obtained. The bacteria are diluted one to 20 in TSB and inoculated on the plates (1 μl using a Steers replicator).
as §2

[4] = test system: Pseudomonas aeruginosa; conditions: Pseudomonas aeruginosa
Description: as §3, §2

[5] = test system: Acinetobacter calcoaceticus; conditions: Acinetobacter calcoaceticus
Description: as §3, §2

[6] = test system: Staphylococcus aureus; conditions: Staphylococcus aureus
Description: as §3, §2

[7] = test system: Klebsiella pneumoniae
Description: as §3, §2

[8] = test system: Streptococcus pyogenes; conditions: Streptococcus pyogenes
Description: as §3, §2

[9] = test system: Citerobacter freundii
Description: as §3, §2

[10] = test system: Streptococcus faecalis; conditions: Enterococcus faecalis
Description: as §3, §2

[11] = test system: Streptococcus pneumoniae; conditions: Streptococcus pneumoniae
Description: as §3, §2

[12] = test system: Escherichia coli; conditions: Escherichia coli
Description: as §3, §2

[13] = test system: Serratia marcescens; conditions: 20 h, read-out: MINIMUM INHIBITORY CONCENTRATION
Description: as §3, §2

[14] = 20 h, read-out: MINIMUM INHIBITORY CONCENTRATION
[15] = read-out: MINIMUM INHIBITORY CONCENTRATION
[16] = 20 h, read-out: MINIMUM INHIBITORY CONCENTRATION, Cult No. 9679, MHA
[17] = 20 h, read-out: MINIMUM INHIBITORY CONCENTRATION, Cult No. 6676, MHA
[18] = 20 h, read-out: MINIMUM INHIBITORY CONCENTRATION, Cult No. 9191, MHA
[19] = 20 h, read-out: MINIMUM INHIBITORY CONCENTRATION, Cult No. 12120, MHA
[20] = 20 h, read-out: MINIMUM INHIBITORY CONCENTRATION, Cult No. 12170, MHA
[21] = 20 h, read-out: MINIMUM INHIBITORY CONCENTRATION, Cult No. 6685, MHA
[22] = 20 h, read-out: MINIMUM INHIBITORY CONCENTRATION, Cult No. 9213, MHA
[23] = 20 h, read-out: MINIMUM INHIBITORY CONCENTRATION, Cult No. 9218, MHA
[24] = 20 h, read-out: MINIMUM INHIBITORY CONCENTRATION, Cult No. 9271, MHA
[25] = 20 h, read-out: MINIMUM INHIBITORY CONCENTRATION, Cult No. 152, MHA
[26] = 20 h, read-out: MINIMUM INHIBITORY CONCENTRATION, Cult No. 41, MHA
[27] = 20 h, read-out: MINIMUM INHIBITORY CONCENTRATION, Cult No. 6674, MHA
[28] = 20 h, read-out: MINIMUM INHIBITORY CONCENTRATION, Cult No. 9451, MHA
[29] = 20 h, read-out: MINIMUM INHIBITORY CONCENTRATION, Cult No. 9855, MHA
[30] = 20 h, read-out: MINIMUM INHIBITORY CONCENTRATION, Cult No. 9952, MHA

| Structure (SMILES) | MIC [1, 14] [µg/mL] | MIC [2, 15] [µg/mL] | MIC [3, 16] [µg/mL] | MIC [4, 17] [µg/mL] | MIC [4, 18] [µg/mL] | MIC [4, 19] [µg/mL] | MIC [5, 20] [µg/mL] | MIC [6, 21] [µg/mL] | MIC [6, 22] [µg/mL] | MIC [6, 23] [µg/mL] | MIC [6, 24] [µg/mL] | MIC [7, 14] [µg/mL] | MIC [8, 25] [µg/mL] | MIC [9, 14] [µg/mL] | MIC [10, 14] [µg/mL] | MIC [13] [µg/mL] | MIC [11, 26] [µg/mL] | MIC [12, 27] [µg/mL] | MIC [12, 28] [µg/mL] | MIC [12, 29] [µg/mL] | also measured |
| --- | --- | --- | --- | --- | --- | --- | --- | --- | --- | --- | --- | --- | --- | --- | --- | --- | --- | --- | --- | --- | --- |
| C#CC(C)(C)n1cc(C(=O)O)c(=O)c2cc(F)c(N3CCC(N)C3)nc21.CS(=O)(=O)O (racemic) [E, (+,-)-7-(3-amino-1-pyrrolidinyl)-1,4-dihydro-1-(1,1-dimethyl-2-propynyl)-6-fluoro-4-oxo-1,8-naphthyridine-3-carboxylic acid methanesulfonate] |  |  |  |  |  |  |  |  |  |  |  |  |  |  |  |  |  |  |  |  | MIC ([1]; UC9382, 20 h, E. cloacae UC 9382, Table CI, read-out: Minimum Inhibitory Concentration): 0.06 µg/mL; MIC ([2]; S. epidermidis 30031, Table CI, read-out: Minimum Inhibitory Concentration): 0.125 µg/mL; MIC ([3]; UC9679, 20 h, P. penneri UC 9679, Table CI, read-out: Minimum Inhibitory Concentration): 0.5 µg/mL; MIC ([4]; UC6676, 20 h, Ps. aeruginosa UC 6676, Table CI, read-out: Minimum Inhibitory Concentration): 2 µg/mL; MIC ([4]; UC9191, 20 h, Ps. aeruginosa UC 9191, Table CI, read-out: Minimum Inhibitory Concentration): 1 µg/mL; MIC ([4]; UC12120, 20 h, Ps. aeruginosa UC 12120, Table CI, read-out: Minimum Inhibitory Concentration): 0.5 µg/mL; MIC ([5]; UC12170, 20 h, A. calcoaceticus UC 12170, Table CI, read-out: Minimum Inhibitory Concentration): 0.25 µg/mL; MIC ([6]; UC6685, 20 h, S. aureus UC 6685, Table CI, read-out: Minimum Inhibitory Concentration): 0.125 µg/mL; MIC ([6]; UC9213, 20 h, S. aureus UC 9213, Table CI, read-out: Minimum Inhibitory Concentration): 0.25 µg/mL; MIC ([6]; UC9218, 20 h, S. aureus UC 9218, Table CI, read-out: Minimum Inhibitory Concentration): 0.25 µg/mL; MIC ([6]; UC9271, 20 h, S. aureus UC 9271, Table CI, read-out: Minimum Inhibitory Concentration): 0.25 µg/mL; MIC ([7]; UC12081, 20 h, K. pneumoniae UC 12081, Table CI, read-out: Minimum Inhibitory Concentration): 0.125 µg/mL; MIC ([8]; UC152, 20 h, S. pyogenes UC 152, Table CI, read-out: Minimum Inhibitory Concentration): 0.25 µg/mL; MIC ([9]; Citrobacter freundii, UC3507, 20 h, C. freundii UC 3507, Table CI, read-out: Minimum Inhibitory Concentration): 0.06 µg/mL; MIC ([10]; UC9217, 20 h, S. faecalis UC 9217, Table CI, read-out: Minimum Inhibitory Concentration): 1 µg/mL; MIC ([11]; UC41, 20 h, S. pneumoniae UC 41, Table CI, read-out: Minimum Inhibitory Concentration): 0.5 µg/mL; MIC ([12]; UC6674, 20 h, E. coli UC 6674, Table CI, read-out: Minimum Inhibitory Concentration): 0.06 µg/mL; MIC ([12]; UC9451, 20 h, E. coli UC 9451, Table CI, read-out: Minimum Inhibitory Concentration): 0.06 µg/mL; MIC ([12]; UC9855, 20 h, E. coli UC 9855, Table CI, read-out: Minimum Inhibitory Concentration): 0.06 µg/mL; MIC ([12]; UC9952, 20 h, E. coli UC 9952, Table CI, read-out: Minimum Inhibitory Concentration): 0.06 µg/mL |
| NC1CCN(c2nc3c(cc2F)c(=O)c(C(=O)O)cn3C23CC(C2)C3)C1 (racemic) [No. 36, 7-(3-amino-1-pyrrolidinyl)-1-(bicyclo[1.1.1]pent-1-yl)-1,4-dihydro-6-fluoro-4-oxo-1,8-naphthyridine-3-carboxylic acid] | 0.03 (≈ 0.0837 µM) | 0.06 (≈ 0.167 µM) | 0.25 (≈ 0.698 µM) | 1 (≈ 2.79 µM) | 0.5 (≈ 1.4 µM) | 0.25 (≈ 0.698 µM) | 0.125 (≈ 0.349 µM) | 0.125 (≈ 0.349 µM) | 0.125 (≈ 0.349 µM) | 0.125 (≈ 0.349 µM) | 0.125 (≈ 0.349 µM) | 0.06 (≈ 0.167 µM) | 0.25 (≈ 0.698 µM) | 0.03 (≈ 0.0837 µM) | 0.5 (≈ 1.4 µM) | 0.125 (≈ 0.349 µM) | 0.5 (≈ 1.4 µM) | 0.03 (≈ 0.0837 µM) | 0.03 (≈ 0.0837 µM) | 0.06 (≈ 0.167 µM) | MIC [12, 30]: 0.03 µg/mL (≈ 0.0837 µM) |
| NC1CCN(c2c(F)cc3c(=O)c(C(=O)O)cn(C45CC(C4)C5)c3c2F)C1 (racemic) [No. 84, 7-(3-amino-1-pyrrolidinyl)-1-(bicyclo[1.1.1]pent-1-yl)-1,4-dihydro-6,8-difluoro-4-oxo-3-quinolinecarboxylic acid] | 0.06 (≈ 0.16 µM) | 0.125 (≈ 0.333 µM) | 0.25 (≈ 0.666 µM) | 1 (≈ 2.66 µM) | 0.5 (≈ 1.33 µM) | 0.5 (≈ 1.33 µM) | 0.125 (≈ 0.333 µM) | 0.06 (≈ 0.16 µM) | 0.125 (≈ 0.333 µM) | 0.125 (≈ 0.333 µM) | 0.125 (≈ 0.333 µM) | 0.06 (≈ 0.16 µM) | 0.25 (≈ 0.666 µM) | 0.36 (≈ 0.959 µM) | 0.5 (≈ 1.33 µM) | 0.125 (≈ 0.333 µM) | 0.5 (≈ 1.33 µM) | 0.03 (≈ 0.0799 µM) | 0.06 (≈ 0.16 µM) | 0.06 (≈ 0.16 µM) | MIC [12, 30]: 0.03 µg/mL (≈ 0.0799 µM) |
